Among the data in patent US20230416266A1, “6,7-DIHYDRO-PYRANO[2,3-d]PYRIMIDINE INHIBITORS OF KRAS G12C MUTANT” (Merck Sharp & Dohme Corp., priority 2020, published 2023) are IC50 values, retold here.

The test system of assay [1] is phosphorylation of Erk in NCI-H358 cells. Description: Cellular phospho-ERK assay. It counts as cell-based. To be noted: 2 hour incubation, ratio of p-Erk vs total Erk, read-out: IC50 (nM) pERK (Cell). The procedure: NCI-H358 cells (ATCC® CRL-5807™) were cultured in T150 flask in growth medium (RPMI medium 1640-GlutaMAX™-I (ThermoFisher Scientific 61870) containing 10% fetal bovine serum (ThermoFisher Scientific 10091148)). The cells were harvested in growth medium after TrypLE (ThermoFisher scientific 12604021) digestion and were seeded in 384-well collagen coated cell culture plate (Corning 356702) at a density of 15,000 cells/well, and incubated at 37° C., 5% CO2 overnight. The compound dose-response titrations were prepared and appropriate amounts of compounds were dispensed in a 384-well intermediate plate using an Echo 550 liquid handler. RPMI medium 1640-GluiaMAX™-I were added to the intermediate plate and transferred to 384-well cell culture plate, which was incubated at 37° C., 5% CO2 for 2 hours. After removal of medium from the plate, cells were lysed in lysis buffer from Alpha SureFire® Ultra™ Multiplex p-Erk and total Erk assay kit (PerkinElmer MPSU-PIERK) containing Halt™ Protease and Phosphotase inhibitor cocktail (ThermoFisher Scientific 78446) at room temperature with constant shaking at 300 rpm for 30 minutes. The cell lysates were then transferred to OptiPlate-384 plate (PerkinElmer 6005620) and the phosphorylation of Erk and total Erk levels were detected by Alpha SureFire Ultra Multiplex p-Erk kit (PerkinElmer MPSU-PIERK) following the manufacturer's protocol. Assay plates were read on an EnVision Multimode Plate Reader (PerkinElmer), and the ratio of p-Erk vs total Erk in each well was used as the final readout. Dose response curves were analyzed using a 4-parameter logistic model to calculate IC50 values using spotfire software.

Assay [2] addresses T1, Biotinylated KRAS G12C protein (KRAS G12C/C51S/C80L/C118S, SEQ ID NO: 1) (Homo sapiens, UniProt P01116, C118S/C51S/C80L/G12C).
T1 construct: 183 amino acids; biotin on K10
In words: SOS-catalyzed nucleotide exchange assay (TR-FRET). It counts as biochemical. To be noted: in vitro apparent potency; preincubation time of 60 minutes prior to addition of SOS. The method, then:
The SOS-catalyzed nucleotide exchange assay utilizes a preformed complex of recombinant biotinylated KRAS protein containing G12C/C51S/C80L/C118S mutations (183 amino acids; biotin on K10; leader sequence which is an AviTag; referred to as SEQ ID NO: 1 or “Biotinylated KRAS G12C protein” hereafter), Bodipy-GDP, and Terbium-streptavidin. Compounds are added to this complex and then after 60 minutes, the mixture is treated with recombinant SOS protein and unlabeled GTP. Small molecule inhibitors stabilize the Bodipy-GDP complex whereas the untreated protein rapidly exchanges Bodipy-GDP for unlabeled GTP resulting in reduced TR-FRET signal.
Biotinylated KRAS G12C protein (SEQ ID NO: 1) is diluted to 2 μM in an EDTA buffer (20 mM HEPES, 150 mM sodium chloride, 10 mM EDTA, and 0.01% Tween) and incubated at room temperature for one hour. This mixture is then further diluted to 90nM in an assay buffer (20 mM HEPES, 150 mM sodium chloride, 10 mM magnesium chloride, and 0.005% Tween) containing 15 nM of Terbium-Streptavidin (Invitrogen, catalog #PV3577) and 900 nM of Bodipy-GDP and incubated at room temperature for six hours. This solution is referred to as Biotinylated KRAS G12C mixture.
Each test compound (10 mM stock in DMSO) is diluted in DMSO to make a 10-point, 3-fold dilution series in a 384-well low dead volume microplate (Labcyte, catalog #LP-0200). Once titrations are made, 10 nL of the diluted compounds is acoustically dispensed into a 384-well plate (Corning, catalog #3820) using an Echo 550 (Labcyte).
Each well of the plate receives 3 μL Biotinylated KRAS G12C mixture that had been incubating for six hours and 3 μL of assay buffer using a BioRAPTR (Beckman Coulter) and is incubated at room temperature for 60 minutes. Each well then receives 3 μL of 240 nM recombinant human SOS protein and 9 mM GTP (Sigma, G8877) in assay buffer and is incubated at room temperature for 60 minutes.
The time-resolved fluorescence resonance energy transfer signal of the plate is measured on an Envision (PerkinElmer) plate reader: Excitation filter=340 nm; emission1=495 nm; emission2=520 nm; dichroic mirror=D400/D505; delay time=100 μs. The signal of each well is determined as the ratio of the emission at 520 nm to that at 495 nm. Percent effect of each well is determined after normalization to control wells containing DMSO (no effect) or a saturating concentration of inhibitor (max effect). The apparent effect as a function of compound concentration is fit to a four parameter logistic equation.
For orientation: TR-FRET usually uses a lanthanide donor and a delayed reading to cut background.

Like-named read-outs stand apart in the source and are kept apart here.

T1 sequence (P01116 with tags, fused parts or gaps isoform P01116-2 G12C/C51S/C80L/C118S): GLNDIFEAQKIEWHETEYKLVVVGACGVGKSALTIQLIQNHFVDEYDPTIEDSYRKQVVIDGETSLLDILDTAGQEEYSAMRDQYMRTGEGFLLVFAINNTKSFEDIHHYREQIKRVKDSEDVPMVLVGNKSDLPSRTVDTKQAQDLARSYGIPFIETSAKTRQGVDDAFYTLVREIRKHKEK

What is called IC50 is the midpoint of a concentration-inhibition curve. On to `C=CC(=O)N1CCN(c2nc(OC[C@@H]3CCCN3C)nc3c2CCC(c2cccc4cccc(C)c24)O3)C[C@@H]1CC#N` (mixture of isomers) [Compound 2, 2-((2S)-1-acryloyl-4-(7-(8-methylnaphthalen-1-yl)-2-(((S)-1-methylpyrrolidin-2-yl)methoxy)-6,7-dihydro-5H-pyrano[2,3-d]pyrimidin-4-yl)piperazin-2-yl)acetonitrile], for which the IC50 in assay [1] (Homo sapiens, NCI-H358, 2 h) worked out at 501 nM; in assay [2], 17.5 nM.
Regarding `C=CC(=O)N1CCN(c2nc(OC[C@@H]3CCCN3C)nc3c2CCC(c2c(O)cccc2F)O3)C[C@@H]1CC#N` (mixture of isomers) [Compound 3, 2-((2S)-1-acryloyl-4-(7-(2-fluoro-6-hydroxyphenyl)-2-(((S)-1-methylpyrrolidin-2-yl)methoxy)-6,7-dihydro-5H-pyrano[2,3-d]pyrimidin-4-yl)piperazin-2-yl)acetonitrile], the IC50 in assay [1] (Homo sapiens, NCI-H358, 2 h) worked out at 15700 nM; in assay [2], 793 nM.
Taken in the same sequence, the figures for `C=CC(=O)N1CCN(c2nc(C(=O)N[C@H](C)CN(C)C)nc3c2CCC(c2cccc4ccccc24)O3)C[C@@H]1CC#N` (mixture of isomers) [Compound 11, 4-((S)-4-Acryloyl-3-(cyanomethyl)piperazin-1-yl)-N-((R)-1-(dimethylamino)propan-2-yl)-7-(naphthalen-1-yl)-6,7-dihydro-5H-pyrano[2,3-d]pyrimidine-2-carboxamide] were 21700 nM and 1410 nM.
For `C=CC(=O)N1CCN(c2nc(OC[C@@H]3CCCN3C)nc3c2CCC(c2cccc4ccc5[nH]ncc5c24)O3)C[C@@H]1CC#N` (mixture of isomers) [Compound 12, 2-((2S)-4-(7-(3H-benzo[e]indazol-9-yl)-2-(((S)-1-methylpyrrolidin-2-yl)methoxy)-6,7-dihydro-5H-pyrano[2,3-d]pyrimidin-4-yl)-1-acryloylpiperazin-2-yl)acetonitrile], in that order: 18500 nM and 87.1 nM.
With `C=CC(=O)N1CCN(c2nc(OC[C@@H]3CCCN3C)nc3c2CCC(c2cccc4ccccc24)O3)C[C@@H]1CC#N` (single isomer, unassigned) [Compound 1a], the IC50 was 578 nM in assay [1] and 11.4 nM in assay [2].
Consider `C=CC(=O)N1CCN(c2nc(OC[C@@H]3CCCN3C)nc3c2CCC(c2cccc4ccccc24)O3)C[C@@H]1CC#N` (single isomer, unassigned) [Compound 1b], for which the results for the IC50 in assay [1] and in assay [2] were 9020 nM and 395 nM, respectively.
On to `C=CC(=O)N1CCN(c2nc(OC[C@@H]3CCCN3C)nc3c2CCC(c2c(Cl)c(C)cc4[nH]ncc24)O3)C[C@@H]1CC#N` (single isomer, unassigned) [Compound 4a], for which the IC50 in assay [1] (Homo sapiens, NCI-H358, 2 h) was 19200 nM; in assay [2], 104 nM.
As to `C=CC(=O)N1CCN(c2nc(OC[C@@H]3CCCN3C)nc3c2CCC(c2c(Cl)c(C)cc4[nH]ncc24)O3)C[C@@H]1CC#N` (single isomer, unassigned) [Compound 4b], the values for the IC50 in assay [1] and in assay [2] were 30000 nM and 2690 nM, respectively.
On to `C=CC(=O)N1CCN(c2nc(OC[C@@H]3CCCN3C)nc3c2CCC(c2cccc4c(F)cccc24)O3)C[C@@H]1CC#N` (single isomer, unassigned) [Compound 5a], for which the IC50 in assay [1] (Homo sapiens, NCI-H358, 2 h) was determined as 6350 nM; in assay [2], 88.6 nM.
Regarding `C=CC(=O)N1CCN(c2nc(OC[C@@H]3CCCN3C)nc3c2CCC(c2cccc4c(F)cccc24)O3)C[C@@H]1CC#N` (single isomer, unassigned) [Compound 5b], the IC50 in assay [1] amounted to 10300 nM; in assay [2], 195 nM.
For the compound `C=CC(=O)N1CCN(c2nc(OC[C@@H]3CCCN3C)nc3c2CC(F)(F)C(c2cccc4ccccc24)O3)C[C@@H]1CC#N` (single isomer, unassigned) [Compound 7a], the IC50 in assay [1] came out at 394 nM; in assay [2], 13.8 nM.
Taken in the same sequence, the figures for `C=CC(=O)N1CCN(c2nc(OC[C@@H]3CCCN3C)nc3c2CC(F)(F)C(c2cccc4ccccc24)O3)C[C@@H]1CC#N` (single isomer, unassigned) [Compound 7b] were 2380 nM and 84.8 nM.
For `C=CC(=O)N1CCN(c2nc(OC[C@@H]3CCCN3C)nc3c2CCC(c2cccc4cc(O)ccc24)O3)C[C@@H]1CC#N` (single isomer, unassigned) [Compound 8a], the IC50 came out at 26200 nM in assay [1] (Homo sapiens, NCI-H358, 2 h) and 817 nM in assay [2].
`C=CC(=O)N1CCN(c2nc(OC[C@@H]3CCCN3C)nc3c2CC(C)C(c2cccc4ccccc24)O3)C[C@@H]1CC#N` (single isomer, unassigned) [Compound 9a]: the IC50 is 13200 nM in assay [1] and 259 nM in assay [2].
As for `C=CC(=O)N1CCN(c2nc(OC[C@@H]3CCCN3C)nc3c2CC(C)C(c2cccc4ccccc24)O3)C[C@@H]1CC#N` (single isomer, unassigned) [Compound 9b], the values for the IC50 in assay [1] and in assay [2] were 21300 nM and 2130 nM, respectively.
With `C=CC(=O)N1CCN(c2nc(OC[C@@H]3CCCN3C)nc3c2CC(C)C(c2cccc4ccccc24)O3)C[C@@H]1CC#N` (single isomer, unassigned) [Compound 10a], the results for the IC50 in assay [1] and in assay [2] were 704 nM and 12.9 nM, respectively.
In the case of `C=CC(=O)N1CCN(c2nc(OC[C@@H]3CCCN3C)nc3c2CC(C)C(c2cccc4ccccc24)O3)C[C@@H]1CC#N` (single isomer, unassigned) [Compound 10b], the results for the IC50 in assay [1] and in assay [2] were 5230 nM and 153 nM, respectively.
For the compound `C=CC(=O)N1CCN(c2nc(OC[C@@H]3CCCN3C)nc3c2CCC(C)(c2cccc4ccccc24)O3)C[C@@H]1CC#N` (stereo partly drawn) [Compound 6, 2-((2S)-1-acryloyl-4-(7-methyl-2-(((S)-1-methylpyrrolidin-2-yl)methoxy)-7-(naphthalen-1-yl)-6,7-dihydro-5H-pyrano[2,3-d]pyrimidin-4-yl)piperazin-2-yl)acetonitrile], the IC50 in assay [1] (Homo sapiens, NCI-H358, 2 h) turned out to be 24100 nM; in assay [2], 632 nM.
